In patent publication US6908734B2, “Sulfated CCR5 peptides for HIV-1 infection” (priority 2000, dated 2005):
Where no end group is shown, it is not given here. [ ]: non-standard residue; d: D form. The star is where a group is joined. Biotin = O=C1N[C@H]2[C@H](CS[C@H]2CCCCC(=O)*)N1; sY = N[C@@H](Cc1ccc(OS(=O)(=O)O)cc1)C(=O)O; pY = N[C@@H](Cc1ccc(OP(=O)(O)O)cc1)C(=O)O

Assays:
CD4-IgG2 = CD4-IgG2 (Homo sapiens, UniProt P01730+P01834+P01859); experiment: CCR5 Nt peptide ELISA with CD4-IgG2 alone; type: binding
Protocol: (§2) Streptavidin-coated ELISA plates (Pierce, Rockford, Ill.) were blocked with D-PBS/5% BSA for 2 hours at room temperature then washed three times with assay buffer (D-PBS/0.5% Tween 20/1% Fetal Bovine Serum/2% BSA). Plates were then contacted with sulfo- or phospho-peptides (1 μg/ml) for 1 hour at room temperature and washed three times with assay buffer. […] The plates were developed using the TMB substrate as described above.

PA12 = experiment: ELISA: direct binding of anti-CCR5 MAb PA12 to peptides; set-up: species or system murine
Protocol: (§1) In a competition ELISA, peptides were captured onto the plates as described above. Inhibitor or assay buffer was added for 1 h prior to addition of gp120JR-FL/CD4-IgG2 complex (1 nM) for an additional h at room temperature. The assay was then completed as described above. Direct binding of anti-CCR5 murine MAbs to the peptides was examined as described above except that MAb was substituted for gp120/CD4-IgG2 complex and a goat anti-mouse HRP-coupled antibody was used for detection.

[1] = test system: V3 loop-deleted gp120JR-FL/CD4-IgG2; experiment: CCR5 Nt peptide ELISA with V3 loop-deleted gp120JR-FL/CD4-IgG2; type: binding, HIV-1
Protocol: as §2

PA8 = experiment: ELISA: direct binding of anti-CCR5 MAb PA8 to peptides; set-up: species or system murine
Protocol: as §1

PA11 = experiment: ELISA: direct binding of anti-CCR5 MAb PA11 to peptides; set-up: species or system murine
Protocol: as §1

gp120LAI/CD4-IgG2 = gp120LAI/CD4-IgG2 (Human immunodeficiency virus type 1 group M subtype B, UniProt P03377); conditions: peptide 1 μg/ml on streptavidin plate
Protocol: Streptavidin-coated ELISA plates (Pierce, Rockford, Ill.) were blocked with D-PBS/5% BSA for 2 hours at room temperature then washed three times with assay buffer (D-PBS/0.5% Tween 20/1% Fetal Bovine Serum/2% BSA). Plates were then contacted with sulfo- or phospho-peptides (1 μg/ml) for 1 hour at room temperature and washed three times with assay buffer. Mixtures of CD4-IgG2 (50 nM) and purified gp120 or gp120-containing supernatants in a 1:4 molar ratio were added to the plates for 1 hour at room temperature. Plates were washed three times and (HRP)-conjugated goat anti-human IgG was used to detect the presence of bound CD4-IgG2. The plates were developed using the TMB substrate as described above. Gp120/CD4-IgG2 binding to the peptides was normalized for CD4-IgG2binding to the mutant gp120 proteins.

[2] = test system: gp120JR-FL alanine mutants/CD4-IgG2; experiment: ELISA: binding of gp120JR-FL alanine mutant/CD4-IgG2 complexes to sulfopeptide 2-18; set-up: species or system HIV-1
Protocol: Mutant gp120 proteins were generated using the QuickChange Kit from Stratagene (San-Diego, Calif.). Gp120JR-FL, cloned into the pPPI4 expression vector [4], served as the template for site directed mutagenesis. Nucleotide sequencing was performed to ascertain the presence of the appropriate mutation in the gp120 coding sequence. 293T cells were calcium phosphate transfected with the different mutant gp120 expression constructs. Supernatants containing soluble gp120 proteins were harvested and cleared of debris by centrifugation 24 hours post-transfection. Quantification of gp120 was performed by ELISA as previously described). Briefly, 293T supernatants were boiled for 5 minutes and denatured gp120 was captured on an ELISA plate coated with D7324 (International Enzymes Inc. Fallbrook, Calif.), a MAb that recognizes a 15 residue linear epitope in the carboxy-terminal end of gp120. Captured gp120 was detected by a mixture of anti-gp120 MAbs B12 and B13 [40], followed by incubation with a horseradish peroxidase-conjugated (HRP) anti-mouse IgG antibody (Amersham Pharmacia, Piscataway, N.J.). Optical density (O.D.) was measured at 450 nm using the ImmunoPure TMB Substrate kit (Pierce, Rockford, Ill.).
CD4-IgG2 binding to non-denatured mutant gp120 proteins also was measured. Plates coated with D7324 were used to capture native gp120 from supernatants of transiently transfected 293T cells. CD4-IgG2 (50 nM) was added to the plates and its binding was detected using an HRP-conjugated goat anti-human IgG and TMB substrate as described above.

PA10 = experiment: ELISA: direct binding of anti-CCR5 MAb PA10 to peptides; set-up: species or system murine
Protocol: as §1

PA14 = experiment: ELISA: direct binding of anti-CCR5 MAb PA14 to peptides; set-up: species or system murine
Protocol: as §1

gp120JR-FL/CD4-IgG2 = experiment: CCR5 Nt peptide ELISA with gp120JR-FL/CD4-IgG2; type: binding, HIV-1; conditions: peptide 1 μg/ml on streptavidin plate
Protocol: as §2

gp120DH123/CD4-IgG2 = experiment: CCR5 Nt peptide ELISA with gp120DH123/CD4-IgG2; type: binding, HIV-1; conditions: peptide 1 μg/ml on streptavidin plate
Protocol: as §2

[3] = biological target: T1, gp120JR-FL/CD4-IgG2 binding to the sulfopeptide 2-18 (Homo sapiens, UniProt P51681); experiment: Competition ELISA: gp120JR-FL/CD4-IgG2 binding to sulfopeptide 2-18; set-up: species or system HIV-1; conditions: complex 1 nM, up to supraphysiologic concentrations
T1 construct: a peptide spanning CCR5 residues 2-18 and containing sulfotyrosines in positions 10 and 14; host or cells: peptide synthetic
Protocol: as §1

[4] = biological target: T2, gp120/CD4 binding to cell surface CCR5 (Homo sapiens, UniProt P51681); conditions: cited from earlier work
T2 construct: Supernatants containing soluble gp120 proteins were harvested; made in house; host or cells: gp120: 293T supernatants; CCR5: L1.2-CCR5+ cells
T2 sequence (P51681 whole entry): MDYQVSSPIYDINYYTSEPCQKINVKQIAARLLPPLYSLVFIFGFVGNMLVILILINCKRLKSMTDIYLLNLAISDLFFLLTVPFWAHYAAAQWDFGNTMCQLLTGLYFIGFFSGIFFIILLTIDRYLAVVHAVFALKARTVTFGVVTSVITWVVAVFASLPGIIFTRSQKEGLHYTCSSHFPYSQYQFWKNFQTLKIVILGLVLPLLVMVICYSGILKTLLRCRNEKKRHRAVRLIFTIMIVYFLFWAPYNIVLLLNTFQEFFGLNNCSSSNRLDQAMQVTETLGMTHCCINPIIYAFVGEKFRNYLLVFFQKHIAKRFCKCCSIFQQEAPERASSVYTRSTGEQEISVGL

Molecule	Binding of CD4-IgG2 alone to peptide (ELISA) (CD4-IgG2)	Binding of PA12 to peptide (ELISA) (PA12)	Binding of V3 loop-deleted gp120JR-FL/CD4-IgG2 to peptide (ELISA) [1]	Binding of PA8 to peptide (ELISA) (PA8)	Binding of PA11 to peptide (ELISA) (PA11)	Binding of gp120LAI/CD4-IgG2 to peptide (ELISA) (gp120LAI/CD4-IgG2)	Effect of V3 loop crown residues on gp120 binding to the sulfopeptide ([2]; alanine mutants in the crown of the V3 loop, including the GPGR motif)	Decrease of complex binding to the sulfopeptide by C4 alanine substitutions ([2]; alanine substitutions of R419, I420, K421, Q422 and R444)	Effect of alanine substitutions of R440 and R469 on complex binding ([2]; gp120 R440A, R469A)	Decrease of complex binding to the peptide by V3 loop stem alanine mutants ([2]; gp120 alanine mutants R298, N301, T303, I322, D324, I325, R326, normalized for CD4-IgG2 binding) [fold]	Effect of alanine substitutions in other regions of gp120 on complex-peptide interactions ([2]; other regions of gp120)	Binding of PA10 to peptide (ELISA) (PA10)	Binding of PA14 to peptide (ELISA) (PA14)	Binding of gp120JR-FL/CD4-IgG2 to peptide (ELISA) (gp120JR-FL/CD4-IgG2)	Binding of gp120DH123/CD4-IgG2 to peptide (ELISA) (gp120DH123/CD4-IgG2)	Inhibition of gp120JR-FL/CD4-IgG2 binding to the sulfopeptide 2-18 [3]	Block of gp120/CD4 binding to CCR5 [4]
2-18: peptide spanning CCR5 residues 2-18, sulfotyrosines in positions 10 and 14, carboxy terminal GAG spacer and biotinylated lysine (DYQVSSPI[sY]DIN[sY]YTSEGAGK(Biotin))	did not measurably bind	weak	did not measurably bind	avidly binds	binds moderately	did not measurably bind	no effect	5-10 fold	increased complex binding	> 10	None of the alanine substitutions that we introduced in the other regions of gp120 significantly affected	binds avidly	does not recognize	strongest binding			
2-18(P): analogous CCR5 Nt phosphopeptide, residues 2-18, phosphotyrosines in positions 10 and 14, GAG spacer, biotinylated lysine (DYQVSSPI[pY]DIN[pY]YTSEGAGK(Biotin))		undetectable		avidly binds	weakly	No binding was observed						moderately	does not recognize	No binding was observed	No binding was observed		
Cc1ccc(-c2ccc3c(c2)C=C(C(=O)Nc2ccc(C[N+](C)(C)C4CCOCC4)cc2)CCC3)cc1.[Cl-] [TAK-779]																not inhibited	block
